Like-named read-outs stand apart in the source and are kept apart here.
Columns and labels:
RXF 393 = experiment: NCI IVCLSP growth inhibition (SRB), RXF 393; format: cell-based, human; settings: 48 h drug incubation
Protocol: (§1) FIG. 1 presents nine compounds that were tested using the National Cancer Institute (NCI) 60 human tumor cell lines. The cells lines, which represent leukemia, melanoma, and cancers of the lung, colon, brain, ovary, breast, prostate, and kidney, are listed in Table 1.
(§2) Compounds 1-9 were tested according to the NCI Developmental Therapeutics Program (DTP) In Vitro Cell Line Screening Project (IVCLSP). […] Methodology for testing under the IVCLSP is as follows: The human tumor cell lines of the cancer screening panel are grown in RPMI 1640 medium containing 5% fetal bovine serum and 2 mM L-glutamine. […]
(§3) Following drug addition, the plates are incubated for an additional 48 h at 37° C., 5% CO2, 95% air, and 100% relative humidity. […] Bound stain is subsequently solubilized with 10 mM trizma base, and the absorbance is read on an automated plate reader at a wavelength of 515 nm. […] Using the seven absorbance measurements [time zero, (Tz), control growth, (C), and test growth in the presence of drug at the five concentration levels (Ti)], the percentage growth is calculated at each of the drug concentrations levels. Percentage growth inhibition is calculated as: [(Ti−Tz)/(C−Tz)]×100 for concentrations for which Ti>/=Tz [(Ti−Tz)/Tz]×100 for concentrations for which Ti<Tz.
(§4) Three dose response parameters are calculated for each experimental agent. […]

HL-60(TB) = experiment: NCI IVCLSP growth inhibition (SRB), HL-60(TB); format: cell-based, human; settings: 48 h drug incubation
Protocol: as §1, §2, §3, §4

MOLT-4 = experiment: NCI IVCLSP growth inhibition (SRB), MOLT-4; format: cell-based, human; settings: 48 h drug incubation
Protocol: as §1, §2, §3, §4

HOP-92 = experiment: NCI IVCLSP growth inhibition (SRB), HOP-92; format: cell-based, human; settings: 48 h drug incubation
Protocol: as §1, §2, §3, §4

NCI/ADR-RES = experiment: NCI IVCLSP growth inhibition (SRB), NCI/ADR-RES; format: cell-based, human; settings: 48 h drug incubation
Protocol: as §1, §2, §3, §4

OVCAR-4 = experiment: NCI IVCLSP growth inhibition (SRB), OVCAR-4; format: cell-based, human; settings: 48 h drug incubation
Protocol: as §1, §2, §3, §4

K-562 = experiment: NCI IVCLSP growth inhibition (SRB), K-562; format: cell-based, human; settings: 48 h drug incubation
Protocol: as §1, §2, §3, §4

HCC-2998 = experiment: NCI IVCLSP growth inhibition (SRB), HCC-2998; format: cell-based, human; settings: 48 h drug incubation
Protocol: as §1, §2, §3, §4

MDA-MB-435 = experiment: NCI IVCLSP growth inhibition (SRB), MDA-MB-435; format: cell-based, human; settings: 48 h drug incubation
Protocol: as §1, §2, §3, §4

HCT-116 = experiment: NCI IVCLSP growth inhibition (SRB), HCT-116; format: cell-based, human; settings: 48 h drug incubation
Protocol: as §1, §2, §3, §4

P-glycoprotein = biological target: T1, P-glycoprotein (Homo sapiens, UniProt P08183); experiment: P-glycoprotein antagonism: sensitivity of NCI/ADR cells to vinblastine; format: cell-based; settings: absence or presence of 50 nM vinblastine
T1 construct: NCI/ADR cells that overexpress P-glycoprotein; endogenous in cells; host or cells: NCI/ADR cells
T1 sequence (P08183 whole entry): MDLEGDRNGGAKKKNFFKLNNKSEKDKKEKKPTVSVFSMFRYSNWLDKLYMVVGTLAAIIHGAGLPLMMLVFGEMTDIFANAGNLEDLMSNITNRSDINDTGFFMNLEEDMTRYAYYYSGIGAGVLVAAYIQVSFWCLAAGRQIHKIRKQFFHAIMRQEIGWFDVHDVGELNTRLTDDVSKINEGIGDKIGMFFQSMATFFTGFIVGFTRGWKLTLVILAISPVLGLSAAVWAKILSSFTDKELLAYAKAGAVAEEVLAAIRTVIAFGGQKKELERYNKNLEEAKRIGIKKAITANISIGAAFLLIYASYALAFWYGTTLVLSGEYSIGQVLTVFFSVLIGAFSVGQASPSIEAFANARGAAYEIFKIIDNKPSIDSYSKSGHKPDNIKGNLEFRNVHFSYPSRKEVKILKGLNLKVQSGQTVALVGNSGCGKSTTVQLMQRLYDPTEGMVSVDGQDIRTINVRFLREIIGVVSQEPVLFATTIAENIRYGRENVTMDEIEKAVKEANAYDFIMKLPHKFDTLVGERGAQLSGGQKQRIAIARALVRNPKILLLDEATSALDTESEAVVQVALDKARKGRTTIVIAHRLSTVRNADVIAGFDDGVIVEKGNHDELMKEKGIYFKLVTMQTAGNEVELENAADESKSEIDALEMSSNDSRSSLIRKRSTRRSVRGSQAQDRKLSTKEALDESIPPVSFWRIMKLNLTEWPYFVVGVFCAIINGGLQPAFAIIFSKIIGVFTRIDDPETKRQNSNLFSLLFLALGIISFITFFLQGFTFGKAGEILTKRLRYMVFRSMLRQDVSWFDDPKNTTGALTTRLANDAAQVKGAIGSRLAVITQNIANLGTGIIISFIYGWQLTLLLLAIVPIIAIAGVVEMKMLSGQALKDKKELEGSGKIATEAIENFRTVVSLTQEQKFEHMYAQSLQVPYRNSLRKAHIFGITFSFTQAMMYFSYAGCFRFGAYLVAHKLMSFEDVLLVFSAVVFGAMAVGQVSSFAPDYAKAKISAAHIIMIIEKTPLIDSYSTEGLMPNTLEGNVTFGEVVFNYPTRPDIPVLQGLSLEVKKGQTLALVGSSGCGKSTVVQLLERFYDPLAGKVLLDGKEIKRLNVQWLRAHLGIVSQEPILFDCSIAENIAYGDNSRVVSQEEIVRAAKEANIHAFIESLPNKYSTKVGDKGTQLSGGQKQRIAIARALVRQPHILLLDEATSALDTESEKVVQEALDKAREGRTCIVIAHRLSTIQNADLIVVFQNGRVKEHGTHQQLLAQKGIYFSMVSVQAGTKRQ
Source text: To determine if this is due to inhibition of drug transport activity by these proteins, the effects of these compounds on P-glycoprotein were further characterized. The effects of the compounds on the sensitivity of NCI/ADR cells to vinblastine and of MCF-7/VP cells to vincristine were examined to evaluate antagonism of P-glycoprotein and MRP1, respectively. FIGS. 4a-b present graphs of antagonism score versus concentration for P-glycoprotein and MRP1, respectively.
The Pgp antagonism score is calculated as the percentage survival of cells in the absence of vinblastine/percentage survival in the presence of vinblastine. […] The MRP1 antagonism score is calculated as the percentage survival of cells in the absence of vincristine/percentage survival in the presence of vincristine. […] Concentrations of Compounds 1-5 above their IC50 toward MCF-7 cells are not indicated. Data for one of three similar experiments is shown.

SK-MEL-2 = experiment: NCI IVCLSP growth inhibition (SRB), SK-MEL-2; format: cell-based, human; settings: 48 h drug incubation
Protocol: as §1, §2, §3, §4

HS 578T = experiment: NCI IVCLSP growth inhibition (SRB), HS 578T; format: cell-based, human; settings: 48 h drug incubation
Protocol: as §1, §2, §3, §4

NCI-H23 = experiment: NCI IVCLSP growth inhibition (SRB), NCI-H23; format: cell-based, human; settings: 48 h drug incubation
Protocol: as §1, §2, §3, §4

PC-3 = experiment: NCI IVCLSP growth inhibition (SRB), PC-3; format: cell-based, human; settings: 48 h drug incubation
Protocol: as §1, §2, §3, §4

DU-145 = experiment: NCI IVCLSP growth inhibition (SRB), DU-145; format: cell-based, human; settings: 48 h drug incubation
Protocol: as §1, §2, §3, §4

MCF-7/VP cells = experiment: Cytotoxicity, MCF-7/VP cells that overexpress MRP1; settings: for IC50: mean ± SEM for 3 experiments
Source text: These cell lines are resistant to anticancer drugs due to overexpression of the transport proteins P-glycoprotein or MRP1.

SNB-75 = experiment: NCI IVCLSP growth inhibition (SRB), SNB-75; format: cell-based, human; settings: 48 h drug incubation
Protocol: as §1, §2, §3, §4

MDA-MB-231/ATCC = experiment: NCI IVCLSP growth inhibition (SRB), MDA-MB-231/ATCC; format: cell-based, human; settings: 48 h drug incubation
Protocol: as §1, §2, §3, §4

COc1cc(CCc2cn(Cc3ccccc3)c3nc(N)nc(C)c23)cc(OC)c1OC [Compound 1]
GI50 (RXF 393): 134 nM | GI50 (HL-60(TB)): 64.7 nM | GI50 (MOLT-4): 285 nM | GI50 (HOP-92): 467 nM | GI50 (NCI/ADR-RES): 145 nM | GI50 (OVCAR-4): 821 nM | GI50 (K-562): 84.6 nM | GI50 (HCC-2998): 317 nM | GI50 (MDA-MB-435): 10.1 nM | GI50 (HCT-116): 286 nM | effect on P-glycoprotein-mediated resistance (in words) (P-glycoprotein): no affect on P-glycoprotein at doses below its IC50 | GI50 (SK-MEL-2): 381 nM | GI50 (HS 578T): 283 nM | GI50 (NCI-H23): 278 nM | GI50 (PC-3): 47.9 nM | GI50 (DU-145): 224 nM | Resistance (MCF-7/VP relative to MCF-7) (MCF-7/VP cells; MRP1): 0.6 | IC50 (MCF-7/VP cells; read-out: Cytotoxicity IC50, MCF-7/VP): 250 ± 160 nM | IC50 (MCF-7/VP cells; read-out: drug sensitivity (IC50), MCF-7/VP, Table 4, MRP1 overexpressing): 180 ± 10 nM | GI50 (SNB-75): 358 nM | GI50 (MDA-MB-231/ATCC): 595 nM

Source: US8501752B2, “Methods for treating cancer and other pathological proliferating disorders by inhibiting mitosis using pyrrolo[2,3-d]pyrimidines” (Duquesne University of the Holy Ghost, priority 2005, dated 2013)
